Experimental data from patent US8710298B2, “Heat stable variants of plant adenosine diphosphate glucose pyrophosphorylase small subunit” (University of Florida Research Foundation, Inc., priority 2003, dated 2014).

Columns and labels:
[1] = test system: maize endosperm ADP-glucose pyrophosphorylase (AGP) variant QTCL (small subunit BT2 with tyrosine 36 to cysteine and glutamine inserted between serine 34 and …); assay: Activation and inhibition (Assay C, forward direction), QTCL AGP; assay type: biochemical, maize (Zea mays); conditions: QTCL compared to wild type AGP
Method: (§1) The QTCL construct (SEQ ID NO:7) encodes a maize AGP small subunit protein (SEQ ID NO:8) having a change from a tyrosine at amino acid position 36 to a cysteine and an insertion of a glutamine between the serine at amino acid position 34 and the threonine at amino acid position 35.
(§2) The 3-Phosphoglyceric acid (3-PGA) was added at varying amounts, as specified. When varied, the substrates ranged from 0-5 mM. Reactions were terminated after 5 minutes by boiling in a water bath for 1 minute. […] The change in absorbance between the blank and the reaction was used to calculate the amount to PPi produced for each sample. All reactions were linear with time and enzyme concentration. All assay tubes were pre-warmed to 37° C. prior to assaying and were initiated by the addition of enzyme.

[2] = molecular target: T1, maize endosperm ADP-glucose pyrophosphorylase (AGP) variant QTCL (small subunit BT2 with tyrosine 36 to cysteine and glutamine inserted between serine 34 and th (Zea mays, UniProt P55241+Q947C0, INS34Q/Y36C)); assay: as above; assay type: biochemical; conditions: QTCL; effector varied 0-3 mM, 37° C., 10 minutes
T1 construct: purified heterotetramer
T1 sequence (Q947C0 with tags, fused parts or gaps INS34Q/Y36C): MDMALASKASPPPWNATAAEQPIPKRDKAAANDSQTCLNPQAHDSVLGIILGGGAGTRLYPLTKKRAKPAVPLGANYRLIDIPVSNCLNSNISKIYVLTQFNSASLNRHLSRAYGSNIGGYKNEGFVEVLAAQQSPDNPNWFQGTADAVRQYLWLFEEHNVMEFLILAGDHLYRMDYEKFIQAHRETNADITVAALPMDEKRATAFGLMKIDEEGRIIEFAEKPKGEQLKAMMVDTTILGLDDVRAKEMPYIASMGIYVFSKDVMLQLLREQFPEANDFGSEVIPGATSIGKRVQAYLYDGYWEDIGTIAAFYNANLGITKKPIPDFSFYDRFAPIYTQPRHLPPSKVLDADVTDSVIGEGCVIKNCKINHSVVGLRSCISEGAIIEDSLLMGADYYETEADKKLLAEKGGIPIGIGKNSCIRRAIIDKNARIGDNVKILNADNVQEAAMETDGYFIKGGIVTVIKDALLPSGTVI
T1 sequence (P55241 46-516): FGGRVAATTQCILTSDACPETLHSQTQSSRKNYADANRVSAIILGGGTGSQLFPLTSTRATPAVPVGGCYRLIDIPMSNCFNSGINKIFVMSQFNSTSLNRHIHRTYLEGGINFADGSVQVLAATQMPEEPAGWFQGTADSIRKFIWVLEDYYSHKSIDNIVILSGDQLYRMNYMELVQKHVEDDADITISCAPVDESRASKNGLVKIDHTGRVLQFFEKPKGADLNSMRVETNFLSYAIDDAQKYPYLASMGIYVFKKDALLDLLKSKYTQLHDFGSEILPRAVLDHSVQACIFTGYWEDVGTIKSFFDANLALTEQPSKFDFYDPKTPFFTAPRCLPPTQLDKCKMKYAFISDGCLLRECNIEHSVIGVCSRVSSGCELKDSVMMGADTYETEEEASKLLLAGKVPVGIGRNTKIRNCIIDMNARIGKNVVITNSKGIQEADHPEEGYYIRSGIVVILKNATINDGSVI
Method: as §1, §2

[3] = molecular target: T2, maize endosperm ADP-glucose pyrophosphorylase (AGP), wild type (small subunit BT2 WT-STYL, SEQ ID NO: 2, with wild type large subunit Shrunken-2) (Zea mays, UniProt P55241+Q947C0); conditions: effector varied 0-3 mM, 37° C., 10 minutes
T2 sequence (Q947C0 1-475): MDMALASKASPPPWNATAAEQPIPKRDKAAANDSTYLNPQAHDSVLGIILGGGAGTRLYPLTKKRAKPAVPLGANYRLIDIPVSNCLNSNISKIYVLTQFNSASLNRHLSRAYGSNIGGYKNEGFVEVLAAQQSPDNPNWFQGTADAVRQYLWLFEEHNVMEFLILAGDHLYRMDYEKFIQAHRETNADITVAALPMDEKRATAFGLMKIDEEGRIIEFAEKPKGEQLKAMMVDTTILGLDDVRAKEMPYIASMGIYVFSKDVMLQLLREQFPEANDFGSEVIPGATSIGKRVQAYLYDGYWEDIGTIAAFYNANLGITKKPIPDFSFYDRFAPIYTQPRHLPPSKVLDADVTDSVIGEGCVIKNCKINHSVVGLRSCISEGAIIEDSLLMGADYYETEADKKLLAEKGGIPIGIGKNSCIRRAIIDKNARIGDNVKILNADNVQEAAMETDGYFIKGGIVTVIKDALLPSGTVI
T2 sequence (P55241 46-516): T1 sequence (P55241 46-516)
Method: (§3) Protein inductions were as described by Greene and Hannah (1998) with a few modifications.
as §2
To determine the extent of activation with or with out 3-PGA, 0.1 or 2.0 μg respectively, of purified maize wt-AGP was incubated for 12.5 minutes in the forward assay. To determine the activation constant for the maize wt AGP, 0.2 μg of purified maize wt-AGP was incubated for 12.5 minutes in the forward assay. 3-PGA concentrations ranged from 0-5.0 mM. Curves were fit using Graph Pad Prism using non-linear regression.

[4] = molecular target: T1, maize endosperm ADP-glucose pyrophosphorylase (AGP) variant QTCL (small subunit BT2 with tyrosine 36 to cysteine and glutamine inserted between serine 34 and th); assay: Enzyme kinetics (substrates), forward reaction, purified QTCL AGP; assay type: biochemical
Method: The QTCL construct (SEQ ID NO:7) encodes a maize AGP small subunit protein (SEQ ID NO:8) having a change from a tyrosine at amino acid position 36 to a cysteine and an insertion of a glutamine between the serine at amino acid position 34 and the threonine at amino acid position 35. […] The mutations were verified by sequence analysis.
as §3, §2
The QTCL mutant and wild type enzymes were purified from E. coli as described in the materials and methods.

[5] = molecular target: T2, maize endosperm ADP-glucose pyrophosphorylase (AGP), wild type (small subunit BT2 WT-STYL, SEQ ID NO: 2, with wild type large subunit Shrunken-2)
Method: E. coli strain AC70R1-504, which lacks the functional AGP gene and cannot synthesize glycogen, was transformed with both pMoncSh2 and pMoncBt2 (plasmids containing the large and small subunit of wt-AGP respectively). An overnight culture was grown with constant shaking at 225 rpm at 37° C. in LB media containing 75 ug/ml spectinomycin and 50 μg/ml kanamycin. An aliquot of the overnight culture (12.5 ml) was used to inoculate a 1 L flask containing the same media. The 1 L flask was grown until the OD600 reached 0.5-0.6. The cultures were cooled to room temperature and protein expression was induced by the addition of 0.2 mM isopropyl-beta-D-thiogalactoside (IPTG) and 0.02 mg/ml nalidixic acid. Expression continued for 3 hours at room temperature with constant shaking. Cells were centrifuged at 8000×g supernatant removed and stored as pellets at −80° C.
The 3-Phosphoglyceric acid (3-PGA) was added at varying amounts, as specified. When varied, the substrates ranged from 0-5 mM. Reactions were terminated after 5 minutes by boiling in a water bath for 1 minute. […] The change in absorbance between the blank and the reaction was used to calculate the amount to PPi produced for each sample. All reactions were linear with time and enzyme concentration. All assay tubes were pre-warmed to 37° C. prior to assaying and were initiated by the addition of enzyme. […]

Row | Compound | Ka for the QTCL enzyme, fold higher than wild type AGP [1] | Ka (3-PGA) [2] | Ka (3-PGA) [3] | Vmax (ATP) ([4]; 10 mM 3-PGA, 37° C., 10 minutes) [µmol/min/mg] | Km ([4]; read-out: Km for ATP, 10 mM 3-PGA, 37° C., 10 minutes) [µM] | Vmax (ATP) ([5]; forward reaction, 10 mM 3-PGA, 37° C., 10 minutes) [µmol/min/mg] | Km ([5]; read-out: Km for ATP, forward reaction, 10 mM 3-PGA, 37° C., 10 minutes) [µM]
1 | O=C(O)[C@H](O)COP(=O)(O)O [3-PGA, 3-phosphoglyceric acid] | approximately 2 -fold | 1.08 ± 0.13 | 0.57 ± 0.055 | – | – | – | –
2 | Nc1ncnc2c1ncn2[C@@H]1O[C@H](COP(=O)(O)OP(=O)(O)OP(=O)(O)O)[C@@H](O)[C@H]1O [ATP] | – | – | – | 23.4 ± 0.53 | 140 ± 10 | 9.25 ± 0.32 | 66 ± 10
